Each structure is given as a SMILES string.

The values below come from US20220241376A1, “METHOD FOR DECREASING ADVERSE-EFFECTS OF INTERFERON” (ENYO PHARMA, priority 2019, published 2022).

The series relates to patients chronically infected with HBV. Kind of series: 4-week clinical treatment combining weekly sub-cutaneous pegylated IFNα2a (PEG-IFN) with daily oral EYP001a or placebo: treatment emergent adverse events. The conditions noted are these: compared with Placebo + IFN; significant differences (Table 2).

Consider `O=C(O)c1cc2c(Cl)c(N3CCN(S(=O)(=O)c4c(Cl)cccc4Cl)CC3)ccc2o1` [EYP001a], for which the “frequency of flu-like AE when IFN treatment was combined with EYP001” value is “lower up to three times less”.
